The values below come from patent US8193213B2, “Spermicidal and/or antifungal composition and methods of using the same” (priority 2003, dated 2012).

One series deals with Candida albicans. Description: Antifungal susceptibility testing (NCCLS, MIC/MFC) against C. albicans. More on the design: Lowest [Active]: unit not given here. As to conditions: for Lowest MIC: lowest concentration that appears to have no growth; for Lowest MFC: lowest concentration that kills >= 98% of the cells in the well; for CFU for MFC at 200 / CFU for MFC at 300 / Lowest [Active] / CFU for MFC at 100: C. albicans (19 hours); for CFU for MFC at 200: concentration 200; for CFU for MFC at 300: concentration 300; for Lowest [Active]: concentrations 300, 200, 100, unit not given, N/A = no active concentration; for CFU for MFC at 100: concentration 100. Type of series: cell-based. The method, then:
(§1) Antifungal susceptibility testing was performed following the NCCLS guidelines with minor modifications. Briefly, a suspension of Candida albicans cells was prepared from pure cultures grown overnight on yeast-malt extract (YM) agar at 35° C. Several small colonies were removed from a YM agar plate and transferred to 5 ml of 0.85% saline. The cells were suspended by 15 seconds of vortexing and the cell density of the resulting suspension was determined using a spectrophotometer. The cell density was adjusted by addition of 0.85% saline until the transmittance matched that of a 0.5 McFarland standard when measured at a wavelength of 530 nm. An aliquot of this suspension was diluted 1:1000 in RPMI-MOPS to yield a working suspension. A similar suspension of Aspergillus fumigatus spores was obtained by using spores stored at […] in 0.85% saline. These spores were diluted in 0.85% saline to match the McFarland standard transmittance. This suspension was then further diluted 1:50 in RPMI-MOPS to produce the working inoculum suspension.
(§2) Dilution series of the test compounds were made in RPMI-MOPS containing 2% DMSO. An aliquot of each dilution was added in duplicate to the wells of a sterile 96-well, flat bottom microtiter plate. Then, an aliquot of either the C. albicans cell suspension or the A. fumigatus spore suspension were added to each well for a final volume of 200 μl. The plates were then incubated at […]. […] A similar determination was made for the A. fumigatus plates after 48 hours. […] The numbers of colony forming units (CFU) were counted and these values used to calculate the percent survival of cells or spores in inocula relative to the number of CFUs in the working inoculum suspension. The minimum fungicidal concentration (MFC) was the lowest concentration of test compound with a percent survival of less than 2%.

For another series, the system named is Aspergillus fumigatus. Description: Antifungal susceptibility testing (NCCLS, MIC/MFC) against A. fumigatus. The class given is cell-based. Also noted: Lowest [Active]: unit not given here. As to conditions: for Lowest MIC / Lowest MFC: A. fumigatus; for Lowest MIC: lowest concentration that appears to have no growth; for Lowest MFC: lowest concentration that kills >= 98% of the cells in the well; for CFU for MFC at 100 / CFU for MFC at 200 / CFU for MFC at 300 / Lowest [Active]: A. fumigatus (48 hours); for CFU for MFC at 100: concentration 100; for CFU for MFC at 200: concentration 200; for CFU for MFC at 300: concentration 300; for Lowest [Active]: concentrations 300, 200, 100, unit not given, N/A = no active concentration. The method, then:
as §1, §2

The next series concerns rat cauda sperm. Description: Direct effect on sperm motility, rat cauda epididymis sperm. As to conditions: control: progressive motility. Type of series: cell-based. The method, then:
Method for Determining Direct Effect of an Agent on Sperm Motility The direct effect of an agent on sperm motility was determined by using the following protocols. Basically, sperm are obtained either from the cauda epididymis, as in the case of the rat, or ejaculated sperm collected using an artificial vagina, as in the rabbit. The initial motility of the sperm is determined manually or by using a Hamilton Thorn IVOS sperm analyzer. The sperm are then kept at a constant temperature of 34° C., diluted to a consistent concentration of 10×10^6/ml, and added to about 3 ml of buffer or media. The motility is determined again at this point and any change is recorded. Different concentrations of the agent to be tested are then added to the sperm preparation. The sperm samples are then held at the same temperature for one hour and the motility is determined. The results are recorded as the percent of motile sperm in the sample. The Sperm were kept at 34° C. throughout the experimental period. Sperm concentration was be approximately 10×10^6/ml (note, the sample may have had to be diluted with buffer or media to reach this concentration). For the Rat Studies: (Using Sperm from the Cauda Epididymis) A 1 mM stock of the indenopyridine in HBSS buffer+BSA (5 mg in 10=0.5 ug/ul; 0.5 ug/ml=1 uM) was prepared and added as follows: 1 uM=1 ul stock+949 ul HBSS buffer+BSA+50 ul of the diluted sperm 3 uM=3 ul stock+947 ul HBSS buffer+BSA+50 ul of the diluted sperm 10 uM=10 ul stock+940 ul HBSS buffer+BSA+50 ul of the diluted sperm 30 uM=30 ul stock+920 ul HBSS buffer+BSA+50 ul of the diluted sperm 100 uM=100 ul stock+850 ul HBSS buffer+BSA+50 ul of the diluted sperm 300 uM=300 ul stock+650 ul HBSS buffer+BSA+50 ul of the diluted sperm 1000 uM=1000 ul stock+50 ul of the diluted sperm Sperm Motility was determined after 1 hour. Slides were made to determine morphology changes and eosin was added to determine cell death.

The subject of the next series is rabbit ejaculated sperm. Description: Direct effect on sperm motility, rabbit ejaculated sperm. The class given is cell-based. As to conditions: for Motility (%) at 60 Minutes: rabbit ejaculate diluted 1:10, 34° C., control 76.6. Here is the method: Method for Determining Direct Effect of an Agent on Sperm Motility The direct effect of an agent on sperm motility was determined by using the following protocols. Basically, sperm are obtained either from the cauda epididymis, as in the case of the rat, or ejaculated sperm collected using an artificial vagina, as in the rabbit. The initial motility of the sperm is determined manually or by using a Hamilton Thorn IVOS sperm analyzer. The sperm are then kept at a constant temperature of 34° C., diluted to a consistent concentration of 10×10^6/ml, and added to about 3 ml of buffer or media. The motility is determined again at this point and any change is recorded. Different concentrations of the agent to be tested are then added to the sperm preparation. The sperm samples are then held at the same temperature for one hour and the motility is determined. The results are recorded as the percent of motile sperm in the sample. The Sperm were kept at 34° C. throughout the experimental period. Sperm concentration was be approximately 10×10^6/ml (note, the sample may have had to be diluted with buffer or media to reach this concentration). For the Rabbit Studies: (Using Ejaculated Sperm) A 1 mM stock of the indenopyridine in M-199 media with BSA (2.5 mg in 5=0.5 ug/ul; 0.5 ug/ml=1 uM) was prepared and added as follows: 1 uM=1 ul stock+949 ul M-199 media with BSA+50 ul of the diluted sperm 3 uM=3 ul stock+947 ul M-199 media with BSA+50 ul of the diluted sperm 10 uM=10 ul stock+940 ul M-199 media with BSA+50 ul of the diluted sperm 30 uM=30 ul stock+920 ul M-199 media with BSA+50 ul of the diluted sperm 100 uM=100 ul stock+850 ul M-199 media with BSA+50 ul of the diluted sperm 300 uM=300 ul stock+650 ul M-199 media with BSA+50 ul of the diluted sperm 1000 uM=1000 ul stock+50 ul of the diluted sperm Sperm motility was determined after 1 hour. Slides were made to determine morphology changes and eosin was added to determine cell death.

Each structure is given as a SMILES string. Marks after values point to notes of the source that are not given here. Some results are limits rather than exact numbers.

For `CCN1CC[C@@H]2[C@@H](c3ccc(C(=O)OC)cc3)c3cc(C)ccc3[C@@H]2C1.Cl` (racemic), the melting point came to 204 °C.

Regarding `CCN1CCC2C(C1)c1ccc(C)cc1C2c1ccc(C)cc1.Cl` (stereo not shown) [Compound 4587-002d], in the series with Candida albicans (C. albicans), the “Lowest MFC (class word)” value is given as “fungistatic (Fungistatic = compound with an MIC, but <98% of cells killed)” and the “Lowest MIC” value stood at 50 µg/mL. In the series on Aspergillus fumigatus, the “Lowest MIC” value is 50 µg/mL and the “Lowest MFC” value is 50 µg/mL.

For `CCN1CCC2C(C1)c1ccc(C)cc1C2c1ccc(C)cc1.Cl` (stereo not shown) [Compound 4587-002l], in the series with Candida albicans (C. albicans), the “Lowest MIC” value turned out to be 75 µg/mL and the “Lowest MFC” value worked out at 100 µg/mL. In the series on Aspergillus fumigatus, the “Lowest MIC” value is 50 µg/mL and the “Lowest MFC” value is 75 µg/mL.

On to `CCN1CCC2C(C1)c1ccc(C)cc1C2c1ccc(C)cc1.Cl` (stereo not shown) [Compound 4587-003], for which, in the series with Candida albicans (C. albicans), the “Lowest MIC” value came out at 50 µg/mL and the “Lowest MFC” value stood at 75 µg/mL. Further, in the series with Aspergillus fumigatus, the “Lowest MIC” value turned out to be 25 µg/mL and the “Lowest MFC” value came to 25 µg/mL.

On to `CCN1CCC2C(C1)c1ccc(C)cc1C2c1ccc(C(=O)OC)cc1.Cl` (stereo not shown) [Compound 4587-056l], for which, in the series with Candida albicans, the “CFU for MFC at 200” value is “Cidal (Cidal = >98% killed)”, the “CFU for MFC at 300” value is given as “Cidal (Cidal = >98% killed)” and the “Lowest [Active]” value is 200. Also, in the series on Aspergillus fumigatus, the “CFU for MFC at 100” value is reported as “Cidal (Cidal = >98% killed)”, the “CFU for MFC at 200” value is given as “Cidal (Cidal = >98% killed)”, the “CFU for MFC at 300” value was “Cidal (Cidal = >98% killed)” and the “Lowest [Active]” value was found to be 100.

Regarding `CCN1CCC2C(C1)c1cc(I)c(C)cc1C2c1ccc(C(=O)OC)cc1.Cl` (stereo not shown) [Compound 4587-073d], in the series on Candida albicans, the “CFU for MFC at 100” value is reported as “Static (Static = well looked clear, but <98% killed)”; the “CFU for MFC at 200” value is reported as “Cidal (Cidal = >98% killed)”; the “CFU for MFC at 300” value was “Cidal (Cidal = >98% killed)”; the “Lowest [Active]” value is reported as 100. In the series with Aspergillus fumigatus, the “CFU for MFC at 100” value is listed as “Cidal (Cidal = >98% killed)”, the “CFU for MFC at 200” value was “Cidal (Cidal = >98% killed)”, the “CFU for MFC at 300” value is listed as “Cidal (Cidal = >98% killed)” and the “Lowest [Active]” value was 100.

As to `CCN1CCC2C(C1)c1cc(I)c(C)cc1C2c1ccc(C(=O)OC)cc1.Cl` (stereo not shown) [Compound 4587-073l], the “Motility (%) at 60 Minutes (in words)” value with rat cauda sperm (+1 μM) is on record as “Progressive motility-equal to control”; in the series with rat cauda sperm (+3 μM) it was “Progressive motility diminished”; with rat cauda sperm (+10 μM), “No progressive motility - twitching”; in the series on rat cauda sperm (+30 μM), “Same as for 10 μM”; in the series with rat cauda sperm (+100 μM) it was “Death”. Also, the “CFU for MFC at 100” value in the series with Candida albicans and in the series with Aspergillus fumigatus was “Cidal (Cidal = >98% killed)” in each case. For the same molecule, the “CFU for MFC at 200” value with Candida albicans and in the series with Aspergillus fumigatus was “Cidal (Cidal = >98% killed)” in each case. Besides, the “CFU for MFC at 300” value in the series on Candida albicans and with Aspergillus fumigatus was “Cidal (Cidal = >98% killed)” throughout. The “Lowest [Active]” value with Candida albicans and in the series with Aspergillus fumigatus was 100 throughout. In addition, the “Motility (%) at 60 Minutes” value in the series on rabbit ejaculated sperm (+1 μM) was 73.0%; with rabbit ejaculated sperm (+3 μM), 68.4%; in the series with rabbit ejaculated sperm (+10 μM) it was 67.6%; in the series with rabbit ejaculated sperm (+30 μM), 61.9%; in the series with rabbit ejaculated sperm (+100 μM), 15.2 * %; in the series with rabbit ejaculated sperm (+300 μM) it was 0%. The “Motility (%) at 60 Minutes” value with rabbit ejaculated sperm (+1000 μM) is given as 0 ** %. Moreover, the “Quality of motility (footnote *)” value with rabbit ejaculated sperm (rabbit sperm, +100 μM, 60 minutes) is recorded as “* Motility not progressive - twitching”. Further, in the series on rabbit ejaculated sperm (rabbit sperm, +1000 μM, 60 minutes), the “Sperm appearance” value is “** Sperm appeared to be “disintegrating”- sperm heads contain many vacuoles and membranes are not always intact”.

Regarding `CCN1CCC2=C(c3ccc(OC)cc3)c3cc(C)ccc3C2C1.Cl` (stereo not shown) [Compound 4587-082], in the series on Candida albicans (C. albicans), the “Lowest MIC” value was >100 µg/mL. In the series on Aspergillus fumigatus, the “Lowest MIC” value is 100 µg/mL and the “Lowest MFC” value is 100 µg/mL.

Regarding `CC(=O)N1CCN(c2ccc(OCC3COC(Cn4ccnc4)(c4ccc(Cl)cc4Cl)O3)cc2)CC1` (stereo not shown) [Ketaconazole, reference compound], the “Lowest MIC” value with Candida albicans (C. albicans) is 32 µg/mL; in the series on Aspergillus fumigatus it was 8 µg/mL.

The melting point is the temperature of the solid-liquid transition.
